From patent US20080045584A1, “Use of Docetaxel for Treating Hepatocellular Carcinoma” (priority 1999, published 2008)
Read-outs that look alike come from different tables or passages of the source.

What was measured:
[1] = system: hepatocellular carcinomas; conditions: cited from earlier work
Hepa 1-6 cells [2] = test: Propidium iodide (PI) exclusion assay, flow cytometry; format: cell-based, murine
Method: (§1) Cells were grown on 5-cm^2 flasks (CORNING) and treated with paclitaxel and docetaxel as set out above. Propidium iodide (10 μg/ml) was then added for 15 minutes incubation at 37° C. Then, medium was collected prior to harvest of the adherent cells. Both suspended and attached cells were collected and resuspended with 500 μl PBS for flow cytometry analysis as set out below. Debris signals were removed by FSC-SSC gating.
(§2) Cells (10000) were analyzed on a Becton Dickinson FACS Calibur flow cytometer using an argon-ion laser (15 mWatt) with incident beam at 488 nm. For PI exclusion assay, red fluorescence was collected through a 585 nm filter and the cell debris signals were removed by FSC-SSC gating. Data were acquired and analyzed using FACS/CELL Quest software on a Power Macintosh 7600/120 computer. Apoptotic cells and cells at specific cycle phases were determined by ModFit LT software.
(§3) Data are mean±standard error of mean from duplicated sample of at least three independent experiments. Cells were treated with drugs for 24-72 hours, and membrane permeability was measured by flowcytometric analysis of propidium exclusion in viable hepatoma cells. Data are the percentage of cells with intact cell membrane as compared to control

hepatocellular carcinoma = conditions: phase II clinical trial; cited from earlier work
Hep G2 cells [3] = test: DNA fragmentation electrophoresis analysis; format: cell-based, human; conditions: Hep G2, 0.1 and 1 μM, 72 hours
Method: DNA fragmentation assessment was according to the method Herrmann et al, Nucleic Acids Res., 22, 5506-5507, 1994.
Briefly, HEP G2 cells (2×10^7) were treated for 72 hours with paclitaxel and docetaxel as set out above and centrifuged. The thus obtained cell pellets were resuspended with NP-40 lysis buffer (1% NP-40 in 20 mM EDTA, 50 mM Tris-HCl, pH 7.5). After lysis of cells for a few seconds, the supernatants were collected (5 minutes at 1600×g). The extraction was repeated with the same lysis buffer. SDS (final concentration 1%) and RNase were added (final concentration 2.5 μg/μl) to supernatants and incubated for 2 hours at 56° C. followed by digestion with proteinase K (2.5 μg/μl) for 2 hours at 37° C. Then, the mixtures were added to 10 M ammonium acetate prior to 100% ethanol precipitation for 30 minutes at −20° C. The DNA was collected by centrifugation (10 min at 12000 ×g) followed by electrophoresis on 1.5% agarose gel.
In FIG. 3, M is a 100 base pair marker. […] Lanes 2 and 3 show mean paclitaxel (0.1 and 1 μM) treatment groups. Lanes 4 and 5 show mean docetaxel (0.1 and 1 μM) treatment groups.

Hep G2 cells [4] = test: Cell viability study: MTT assay; format: cell-based, human; conditions: Homo sapiens, HepG2, Hep G2, 10 μM, read-out: viability, % of control
Method: The experiments detailed below involve human hepatoma cell lines Hep3B (ATCC designation HB 8064), HepG2 (ATCC designation HB 8065) and HA22T/VGH, and murine hepatoma cell line Hepa 1-6. These cells were cultured in DMEM (GIBCO, BRL) containing 10% fetal bovine serum (Hyclone), 0.01 mg/ml gentamycin and 0.1 mM non-essential amino acid. Cells were grown in a CO2 incubator at 37° C., with 5% CO2 and 95% filtered air.
Paclitaxel was dissolved in dimethylsulfoxide (DMSO) and docetaxel was dissolved in ethanol as stock solutions. The final concentration of vehicle was less than 0.1%.
Cells were cultured in a 96 well cell culture cluster (COSTAR) at a density of 4×10^4 cells/ml. After drug treatment for 24 hours or 72 hours, medium was discarded and replaced with an equal volume (100 μl) of fresh medium containing MTT (0.456 mg/ml; 3-[4,5-Dimethylthiazol-2-yl]2,5-diphenyl-tetrazolium bromide) and incubated for 1.5 hours at 37° C. The fresh medium was then discarded, and 100 μl DMSO was then added. Cell viability was determined by colorimetric comparison by reading OD values from a microplate reader (SPECTRA MAX250) at an absorption wavelength of 570 nm.
Data are the mean i standard error of mean from duplicate samples of three independent experiments.

Hepa 1-6 cells [5] = test: Flow cytometric analysis of DNA content (cell cycle, sub-G0/G1); format: cell-based, murine; conditions: for % of apoptotic (sub-G0/G1) cells: Hepa 1-6, 24 hrs
Method: (§4) Lysing buffer (0.5% Triton X-100, 0.2 μg/ml Na2EDTA.2H2O, and 1% bovine serum albumin in PBS) was added to the cell pellets which were then left on ice for 15 minutes. 100% methanol pre-cooled to −20° C. was then added to the mixture, which was then centrifuged at 300×g for 5 minutes. The supernatant was discarded and the cell pellet was washed with PBS. The washed pellet was stained with a DNA staining solution (50 μg/ml propidium iodide, and 5 kunitz/ml of RNase A) for 30 minutes at 4° C. in the dark. The DNA content of each cell was measured using a Becton Dickinson FACS Calibur flow cytometer as set out below.
as §2
(§5) Table 1 gives figures for cell membrane permeability of the hepatoma cells, following treatment with paclitaxel and docetaxel. Table 2 details the percentage of apoptotic (sub-G0/G1) cells found after paclitaxel and docetaxel treatment.

Hep G2 cells [6] = test: as above; format: cell-based, human; conditions: Hep G2, 1 μM, 24 hours
Method: as §4, §2, §5

Hep 3B cells [7] = test: as above; format: cell-based, human; conditions: for % of apoptotic (sub-G0/G1) cells: 72 hrs
Method: as §4, §2, §5

HA22T/VGH cells [8] = test: as above; format: cell-based, human; conditions: for % of apoptotic (sub-G0/G1) cells: 72 hrs
Method: as §4, §2, §5

Hep G2 cells [9] = test: Propidium iodide (PI) exclusion assay, flow cytometry; format: cell-based, human
Method: as §1, §2, §3

Hep 3B cells [10] = test: as above; format: cell-based, human
Method: as §1, §2, §3

HA22T/VGH cells [11] = test: as above; format: cell-based, human
Method: as §1, §2, §3

Q: For `COc1cc2c(cc1O)CC[C@@H]1[C@@H]2CC[C@]2(C)[C@@H](O)CC[C@@H]12` [2-methoxyestradiol], which tolerability ([1]; mice, 1 month of daily treatment) is on record?
A: The tolerability was “well tolerated”.

Q: And the “activity against hepatocellular carcinomas” value ([1]; mouse, in vivo)?
A: The value was “active”.

Q: For `CC(=O)O[C@H]1C(=O)[C@@]2(C)[C@H]([C@H](OC(=O)c3ccccc3)[C@]3(O)C[C@H](OC(=O)[C@H](O)[C@@H](NC(=O)c4ccccc4)c4ccccc4)C(C)=C1C3(C)C)[C@]1(OC(C)=O)CO[C@@H]1C[C@@H]2O` [Paclitaxel], which “percentage of cells with intact cell membrane as compared to control” value (“percentage of cells” below) (Hepa 1-6 cells [2]; Hepa 1-6, 24 hrs, 0.01 μM) is on record?
A: The value was 93.17 ± 3.8%.

Q: And the “percentage of cells” value (Hepa 1-6 cells [2]; Hepa 1-6, 24 hrs, 0.1 μM)?
A: Its value is 67.20 ± 4.4%.

Q: And the “percentage of cells” value (Hepa 1-6 cells [2]; Hepa 1-6, 24 hrs, 1 μM)?
A: The value was 62.65 ± 7.6%.

Q: What about the “percentage of cells” value (Hepa 1-6 cells [2]; Hepa 1-6, 72 hrs, 0.01 μM) of the same molecule?
A: Its value is 62.95 ± 5.6%.

Q: What about the “percentage of cells” value (Hepa 1-6 cells [2]; Hepa 1-6, 72 hrs, 0.1 μM) of the same molecule?
A: The value was 27.79 ± 1.3%.

Q: And the “percentage of cells” value (Hepa 1-6 cells [2]; Hepa 1-6, 72 hrs, 1 μM)?
A: Its value is 15.51 ± 1.0%.

Q: What about the “anti-cancer effect in HCC patients” value (hepatocellular carcinoma) of the same molecule?
A: The value was “no significant anti-cancer effect”.

Q: What about the “DNA fragmentation (agarose gel, FIG. 3)” value (Hep G2 cells [3]) of the same molecule?
A: The value was “induced DNA fragmentation”.

Q: And the viability at 10 µM (Hep G2 cells [4]; 24 hours)?
A: Its viability at 10 µM is 61.8%.

Q: What about the viability at 10 µM (Hep G2 cells [4]; 72 hours) of the same molecule?
A: Its viability at 10 µM is 39.5%.

Q: And the “effect on cell cycle progression” value (Hepa 1-6 cells [5]; Hepa 1-6, 0.1 μM and 1 μM, 24 hours)?
A: Its value is “G2/M phase arrest”.

Q: What about the cell cycle profile (Hepa 1-6 cells [5]; Hepa 1-6, 0.1 μM and 1 μM, 72 hours) of the same molecule?
A: The cell cycle profile was “most of the cells were dead”.

Q: What about the “% of apoptotic (sub-G0/G1) cells” value (Hepa 1-6 cells [5]; 0.01 mM (text: μM)) of the same molecule?
A: The value was 24.02%.

Q: And the “% of apoptotic (sub-G0/G1) cells” value (Hepa 1-6 cells [5]; 0.1 mM (text: μM))?
A: Its value is 55.64%.

Q: What about the “% of apoptotic (sub-G0/G1) cells” value (Hepa 1-6 cells [5]; 1 mM (text: μM)) of the same molecule?
A: Its value is 64.38%.

Q: What about the “effect on cell cycle progression (DNA histogram)” value (Hep G2 cells [6]) of the same molecule?
A: Its value is “obvious G2/M phase arrest”.

Q: What about the “effect on cell cycle progression” value (Hep 3B cells [7]; 0.1 μM or 1 μM, 24 hours) of the same molecule?
A: Its value is “G2/M arrest”.

Q: And the “% of apoptotic (sub-G0/G1) cells” value (Hep 3B cells [7]; 0.1 mM (text: μM))?
A: The value was 38.37%.

Q: What about the “% of apoptotic (sub-G0/G1) cells” value (Hep 3B cells [7]; 1 mM (text: μM)) of the same molecule?
A: Its value is 47.01%.

Q: And the “% of apoptotic (sub-G0/G1) cells” value (HA22T/VGH cells [8]; 0.1 mM (table head; text: μM))?
A: The value was 0%.

Q: What about the “% of apoptotic (sub-G0/G1) cells” value (HA22T/VGH cells [8]; 0.1 mM (table head; text: μM), listed as paclitaxel) of the same molecule?
A: Its value is “No significant sub-G0/G1 population”.

Q: What about the “% of apoptotic (sub-G0/G1) cells” value (HA22T/VGH cells [8]; 1 mM (table head; text: μM)) of the same molecule?
A: The value was 0%.

Q: And the “% of apoptotic (sub-G0/G1) cells” value (HA22T/VGH cells [8]; 1 mM (table head; text: μM), listed as paclitaxel)?
A: The value was “No significant sub-G0/G1 population”.

Q: What about the “effect on cell cycle progression” value (HA22T/VGH cells [8]; increasing concentrations 0.001 μM to 1 μM, 24 hours) of the same molecule?
A: The value was “elevated percentage of G2/M cells”.

Q: And the “percentage of cells” value (Hep G2 cells [9]; Hep G2, 24 hrs, 0.01 μM)?
A: The value was 93.63 ± 1.1%.

Q: And the “percentage of cells” value (Hep G2 cells [9]; Hep G2, 24 hrs, 0.1 μM)?
A: The value was 85.71 ± 6.8%.

Q: And the “percentage of cells” value (Hep G2 cells [9]; Hep G2, 24 hrs, 1 μM)?
A: Its value is 66.71 ± 7.2%.

Q: What about the “percentage of cells” value (Hep G2 cells [9]; Hep G2, 72 hrs, 0.01 μM) of the same molecule?
A: Its value is 56.58 ± 28.7%.

Q: And the “percentage of cells” value (Hep G2 cells [9]; Hep G2, 72 hrs, 0.1 μM)?
A: The value was 43.79 ± 11.7%.

Q: What about the “percentage of cells” value (Hep G2 cells [9]; Hep G2, 72 hrs, 1 μM) of the same molecule?
A: The value was 13.27 ± 4.3%.

Q: And the “percentage of cells” value (Hep 3B cells [10]; 24 hrs, 0.01 μM)?
A: Its value is 77.35 ± 11.7%.

Q: And the “percentage of cells” value (Hep 3B cells [10]; 24 hrs, 0.1 μM)?
A: Its value is 63.50 ± 4.0%.

Q: And the “percentage of cells” value (Hep 3B cells [10]; 24 hrs, 1 μM)?
A: The value was 52.28 ± 4.1%.

Q: What about the “percentage of cells” value (Hep 3B cells [10]; 72 hrs, 0.01 μM) of the same molecule?
A: Its value is 57.00 ± 7.9%.

Q: And the “percentage of cells” value (Hep 3B cells [10]; 72 hrs, 0.1 μM)?
A: Its value is 8.09 ± 2.3%.

Q: And the “percentage of cells” value (Hep 3B cells [10]; 72 hrs, 1 μM)?
A: The value was 1.90 ± 0.3%.

Q: And the “percentage of cells” value (HA22T/VGH cells [11]; 24 hrs, 0.01 μM)?
A: Its value is 94.08 ± 18.6%.

Q: What about the “percentage of cells” value (HA22T/VGH cells [11]; 24 hrs, 0.1 μM) of the same molecule?
A: The value was 40.03 ± 7.8%.

Q: What about the “percentage of cells” value (HA22T/VGH cells [11]; 24 hrs, 1 μM) of the same molecule?
A: Its value is 34.24 ± 8.3%.

Q: What about the “percentage of cells” value (HA22T/VGH cells [11]; 72 hrs, 0.01 μM) of the same molecule?
A: The value was 92.58 ± 21.3%.

Q: What about the “percentage of cells” value (HA22T/VGH cells [11]; 72 hrs, 0.01 μM, listed as paclitaxel) of the same molecule?
A: Its value is 92.58%.

Q: And the “percentage of cells” value (HA22T/VGH cells [11]; 72 hrs, 0.1 μM)?
A: The value was 93.38 ± 32.5%.

Q: And the “percentage of cells” value (HA22T/VGH cells [11]; 72 hrs, 1 μM)?
A: The value was 49.32 ± 8.3%.
